Reference: paper PMC2582943 (Antiviral Research, 2008)
“And” between values parts separate entries of the source, which are not always exact repeats. Equal entries are not always repeated. Structures can show the parent of a compound that is named as a salt. Where two headings read alike, the source gives them in different places. Peptide text beside a SMILES is read from it.

Legend:
SARS-CoV (strain Urbani) [1] = assay: microbe, parasite or virus in culture; assay type: cell-based
Vero 76 cells = assay: cells; assay type: cell-based, African green monkey
SARS-CoV (strain Urbani) [2] = assay: microbe, parasite or virus in culture; assay type: cell-based; remark: listed apart in the source
[3] = system: SARS-CoV Frankfurt-1 strain; assay: microbe, parasite or virus in culture; assay type: cell-based; details: for EC50: read-out: Neutral red uptake assay EC50 ± S.D.
SARS-CoV CHUK-W1 strain [4] = assay: microbe, parasite or virus in culture; assay type: cell-based
[5] = system: SARS-CoV Toronto-2 strain; assay: microbe, parasite or virus in culture; assay type: cell-based
[6] = system: SARS-CoV Frankfurt-1 strain; assay: microbe, parasite or virus in culture; assay type: cell-based
SARS-CoV CHUK-W1 strain [7] = assay: microbe, parasite or virus in culture; assay type: cell-based; remark: listed apart in the source
[8] = system: SARS-CoV Toronto-2 strain; assay: microbe, parasite or virus in culture; assay type: cell-based; remark: listed apart in the source
[9] = Chlorocebus sabaeus, Vero 76, read-out: Neutral red uptake assay IC50
[10] = read-out: Neutral red uptake assay EC50
[11] = read-out: Virus yield reduction assay EC90
[12] = read-out: Neutral red uptake assay IC50
[13] = read-out: Virus yield reduction assay IC50
[14] = Severe acute respiratory syndrome coronavirus, Vero 76, read-out: Neutral red uptake assay EC50
[15] = Severe acute respiratory syndrome coronavirus, Vero 76, read-out: Virus yield reduction assay EC90
[16] = Chlorocebus sabaeus, Vero 76, read-out: Virus yield reduction assay IC50
[17] = read-out: Neutral red uptake assay EC50 ± S.D.
[18] = read-out: VYR assay EC90 ± S.D.
[19] = read-out: Neutral red uptake assay IC50 ± S.D.
[20] = Severe acute respiratory syndrome coronavirus, Vero 76, read-out: Neutral red uptake assay EC50 ± S.D.
[21] = Severe acute respiratory syndrome coronavirus, Vero 76, read-out: VYR assay EC90 ± S.D.

Structure (SMILES)	Inhibition of virus replication in vitro (in words) (SARS-CoV (strain Urbani) [1])	Neutral red uptake assay SI (SARS-CoV (strain Urbani) [1])	IC50 (Vero 76 cells; [9]) [µM]	EC50 (SARS-CoV (strain Urbani) [1]; [10]) [µM]	Virus yield reduction assay SI (SARS-CoV (strain Urbani) [2])	EC90 (SARS-CoV (strain Urbani) [2]; [11]) [µM]	IC50 (Vero 76 cells; [12]) [µM]	IC50 (Vero 76 cells; [13]) [µM]	IC50 (Vero 76 cells; [19])	other results
c1ccc2c(c1)Nc1ccccc1O2 [Phenoxazine]	essentially inactive	<1	74.5 ± 20.2							
CN(C)CCCN1c2ccccc2Sc2ccc(C(F)(F)F)cc21.Cl [Trifluopromazine·HCl]		1.4		13.3 ± 5.8	1.4	12.8 ± 1.9	18 ± 5.6	18 ± 5.6		
c1ccc2c(c1)Oc1ccccc1S2 [Phenoxathiin]		1.1	858 ± 208		1.3					EC50 (SARS-CoV (strain Urbani) [1]; [14]): 763 ± 475 µM; EC90 (SARS-CoV (strain Urbani) [2]; [15]): 752 ± 497 µM; IC50 (Vero 76 cells; [16]): 968 ± 65 µM
CC(C)C[C@H](NC(=O)OCc1ccccc1)C(=O)N[C@@H](CC(C)C)C(=O)N[C@@H](Cc1ccc(O)cc1)C(=O)CF [Calpain Inhibitor IV] (HELM PEPTIDE1{[O=C(OCc1ccccc1)[*:2]].L.L.Y.[FC[*:1]]}$$$$V2.0)	inhibited virus replication as expected	9.4		2.6	3.3	7.2	24.7 ± 7	33 ± 4.1	24.7 µM and 44 µM and 30 µM and 45 µM	EC50 (SARS-CoV (strain Urbani) [1]; [17]): 2.6 ± 0.5 µM; Neutral red uptake assay SI [3]: 9.5; EC50 [3]: 4.6 ± 2.1 µM; EC50 (SARS-CoV CHUK-W1 strain [4]; [17]): 2.6 ± 1.4 µM; Neutral red uptake assay SI [5]: 8.3; EC50 [5, 17]: 5.4 ± 1.4 µM; EC90 (SARS-CoV (strain Urbani) [2]; [18]): 7.2 ± 0.9 µM; EC90 [6, 18]: 6.5 ± 3.6 µM; EC90 (SARS-CoV CHUK-W1 strain [7]; [18]): 6.5 ± 3.6 µM; EC90 [8, 18]: 9.6 ± 3.1 µM
CC(=O)c1ccc2c(c1)N(CCCN1CCN(CCO)CC1)c1ccccc1S2 [Acetophenazine maleate]									18 µM and 15.5 µM and 13.7 µM	EC50 (SARS-CoV (strain Urbani) [1]; [14]): 6.6 ± 3.3 µM; EC50 (SARS-CoV (strain Urbani) [1]; [20]): 8.1 ± 1.4 µM; EC50 (SARS-CoV CHUK-W1 strain [4]; [20]): 9.6 ± 7.6 µM; EC50 [5, 20]: 11.5 ± 3.7 µM; EC90 (SARS-CoV (strain Urbani) [2]; [21]): 12.3 ± 2.1 µM; EC90 (SARS-CoV (strain Urbani) [2]; [15]): 10 ± 5 µM; EC90 [6, 21]: 10 ± 5.2 µM; EC90 (SARS-CoV CHUK-W1 strain [7]; [21]): 11.2 ± 3.2 µM; EC90 [8, 21]: 13 µM; IC50 (Vero 76 cells; Chlorocebus sabaeus, Vero 76, read-out: Neutral red uptake assay IC50 ± S.D.): 14.3 ± 6.4 µM; IC50 (Vero 76 cells; [16]): 13.2 ± 1.6 µM
OCCCN1c2ccccc2Sc2ccc(Cl)cc21 [2-Chloro-10-(3-chloropropanol)-10H-phenothiazine]	essentially inactive	<1		23 ± 11	<1	27 ± 16.8	20.8 ± 8.1	20.8 ± 8.1		
CN1CCCC1CN1c2ccccc2Sc2ccccc21.Cl (centres unmarked) [10-(1-Methyl-2-pyrrolidinymethyl)-phenothiazine·HCl]						16.9 ± 9.7	39.9 ± 0.2	39.9 ± 0.2	39.7 µM and 32.3 µM and 48 µM and 42.3 µM	EC50 [3]: 24.3 ± 7.4 µM; EC50 (SARS-CoV CHUK-W1 strain [4]; [17]): 19 ± 2.6 µM; EC50 [5, 17]: 28.5 ± 8.1 µM; EC90 (SARS-CoV (strain Urbani) [2]; [18]): 28.3 ± 12.9 µM; EC90 [6, 18]: 23.7 ± 6 µM; EC90 (SARS-CoV CHUK-W1 strain [7]; [18]): 31.3 ± 14.2 µM; EC90 [8, 18]: 41.7 ± 4 µM
c1ccc2c(c1)Nc1ccccc1S2 [Phenothiazine]		2.6	56.5 ± 61.5							
